Entries after “also recorded” stand apart in the source; their conditions may differ. Read-outs that look alike come from different tables or passages of the source.
Tests used:
rat A3AR [1] = target: T1, rat A3AR (Rattus norvegicus, UniProt P28647)
T1 sequence (P28647 1-320): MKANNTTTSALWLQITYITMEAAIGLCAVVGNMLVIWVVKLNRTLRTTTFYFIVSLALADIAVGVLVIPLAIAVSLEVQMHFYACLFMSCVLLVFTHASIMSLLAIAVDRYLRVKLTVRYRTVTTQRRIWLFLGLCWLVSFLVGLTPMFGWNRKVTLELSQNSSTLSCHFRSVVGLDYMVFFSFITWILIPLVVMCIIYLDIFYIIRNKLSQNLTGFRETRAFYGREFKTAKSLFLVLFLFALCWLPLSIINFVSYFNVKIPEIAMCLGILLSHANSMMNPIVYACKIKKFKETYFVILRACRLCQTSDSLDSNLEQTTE

rat A3AR [2] = target: T1, rat A3AR; experiment: Competitive radioligand binding at rat A3AR in CHO cell membranes using [76Br]4; conditions: for potency in binding to the rat A3AR: Figures 1A and 1B, [76Br]4 or [76Br]6 as radioligand; for Ki: read-out: Rat Ki, CHO cell membranes, radioligand [76Br]4 0.5 nM, 25°C 60 min
human A3AR [3] = target: T2, human A3AR (Homo sapiens, UniProt P0DMS8); conditions: for potency at human versus rat A3AR: Figures 1A and 1B; for Ki: read-out: Human Ki, CHO cell membranes, radioligand [76Br]4 0.5 nM, 25°C 60 min
T2 sequence (P0DMS8 1-318): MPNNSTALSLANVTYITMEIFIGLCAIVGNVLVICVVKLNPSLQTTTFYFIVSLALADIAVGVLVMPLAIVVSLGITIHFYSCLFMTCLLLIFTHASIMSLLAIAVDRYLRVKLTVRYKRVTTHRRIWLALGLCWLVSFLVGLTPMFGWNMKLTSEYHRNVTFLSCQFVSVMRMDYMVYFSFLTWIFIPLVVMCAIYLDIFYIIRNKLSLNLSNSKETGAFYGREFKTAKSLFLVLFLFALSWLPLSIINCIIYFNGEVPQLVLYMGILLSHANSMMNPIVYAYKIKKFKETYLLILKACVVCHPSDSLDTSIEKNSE

human A3AR [4] = target: T2, human A3AR; conditions: read-out: Human Ki; CHO cell membranes, radioligand [76Br]MRS5147 6
A3AR = experiment: In vitro tissue binding; conditions: rat whole brain and testes slices, with and without inhibitors, preliminary
[5] = In vitro metabolism in human hepatocytes; format: in vitro ADME; conditions: 20 μg/mL, 37°C, up to 4 hours; only very small amounts of metabolites by LC/MS
[6] = In vitro metabolism in rat hepatocytes; format: in vitro ADME; conditions: 20 μg/mL, 37°C, up to 4 hours; only very small amounts of metabolites by LC/MS
[7] = In vivo biodistribution study in rats; set-up: species or system rat; conditions: for uptake in testes over time: i.v., 15, 60 and 120 min post-injection
human A3AR [8] = target: T2, human A3AR; conditions: cited from earlier work
[9] = read-out: Rat Ki, CHO cell membranes, radioligand [76Br]MRS5147 6

Structure (SMILES) | Ki (rat A3AR [1]; [9]) [nM] | potency in binding to the rat A3AR (rat A3AR [2]) | Ki (rat A3AR [2]) [nM] | potency at human versus rat A3AR (human A3AR [3]) | Ki (human A3AR [3]) [nM] | uptake in testes over time ([7]; rat) | other results
O=C(Cc1ccccc1)Nc1nc2ccc(Cl)cc2c2nc(-c3ccco3)nn12 [MRS1220, N-[9-chloro-2-(2-furanyl)[1,2, 4]triazolo[1,5-c]quinazolin-5-yl]benzeneacetamide] | > 10000 | ineffective | > 10000 |  |  |  | 
CCCOC(=O)c1c(-c2ccccc2)nc(CC)c(C(=O)SCC)c1CCC [MRS1523, 3-propyl-6-ethyl-5-[(ethylthio)carbonyl]-2-phenyl-4-propyl-3-pyridine carboxylate, reference compound] | 2830 ± 520 | moderately potent | 939 ± 98 | more potent at the human A3AR | 125 ± 13 |  | Ki (human A3AR [4]): 120 ± 17 nM
CNC(=O)[C@]12C[C@@H]1[C@@H](n1cnc3c(NCc4cccc([76Br])c4)nc(Cl)nc31)[C@H](O)[C@@H]2O [[^76Br]4, [^76Br](1′R,2′R,3′S,4′R,5′S)-4-{2-chloro-6-[(3-bromophenylmethyl)amino]purin-9-yl}-1-(methylaminocarbonyl)bicyclo[3.1.0]hexane-2,3-diol] |  |  |  |  |  |  | specific uptake of radioligand in tissue slices (A3AR): fail to show any specific uptake; metabolic stability in human hepatocytes [5]: very stable; metabolic stability in rat hepatocytes [6]: very stable; organs of primary uptake ([7]; i.v., Sprague-Dawley rats, 15-120 min): liver and kidneys
O[C@@H]1[C@H](O)[C@@H]2C[C@@H]2[C@H]1n1cnc2c(NCc3cccc([76Br])c3)nc(Cl)nc21 [[^76Br]6, [^76Br](1R,2R,3S,4R,5S)-4-(6-(3-bromobenzylamino)-2-chloro-9H-purin-9-yl)bicyclo[3.1.0]hexane-2,3-diol] |  |  |  |  |  | continued to increase with time; also recorded: statistically increased relative to the 15 min time point | tissue uptake relative to agonist [76Br]4 ([7]; rat, i.v., %ID/g): an order of magnitude lower
CNC(=O)[C@]12C[C@@H]1[C@@H](n1cnc3c(NCc4cccc(Br)c4)nc(Cl)nc31)[C@H](O)[C@@H]2O [compound 4, (1′R,2′R,3′S,4′R,5′S)-4-{2-chloro-6-[(3-bromophenylmethyl)amino]purin-9-yl}-1-(methylaminocarbonyl)bicyclo[3.1.0]hexane-2,3-diol] |  |  | 0.9 ± 0.07 | equally potent | 0.63 ± 0.05 |  | selectivity in comparison to other AR subtypes (human A3AR [8]): high selectivity; Ki (human A3AR [8]; read-out: Ki value at the human A3AR, shown previously, listed as 4 (MRS3581)): 0.38 nM
O[C@@H]1[C@H](O)[C@@H]2C[C@@H]2[C@H]1n1cnc2c(NCc3cccc(Br)c3)nc(Cl)nc21 [compound 6, (1R,2R,3S,4R,5S)-4-(6-(3-bromobenzylamino)-2-chloro-9H-purin-9-yl)bicyclo[3.1.0]hexane-2,3-diol] |  |  |  |  |  | increasing uptake in testes | Ki (rat A3AR [1]): 5.2 ± 1.8 nM

— paper PMC2713098 (Nuclear medicine and biology, 2009)
